The text below walks through data of ChEMBL document CHEMBL1201862, “PubChem BioAssay data set” (2004).

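Briefly, cells in 96-well plates were exposed to five compound concentrations for 48 h, and endpoints were estimated by linear interpolation. GI50 = concentration required for 50% inhibition of growth.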 Active and inactive are the calls of the source. Cut-off read from the data, not from the text of the source: active = GI50 up to about 1.1 µM and inactive = higher. Some results are limits rather than exact numbers.

Test systems include HOP-92; SK-OV-3; PC-3; BT-549; SK-MEL-5; MOLT-4; IGROV-1; 786-0; MDA-MB-231; MDA-MB-435; COLO 205; CAKI-1; HCT-15; HCC 2998; EKVX; M14; HT-29; HCT-116; CCRF-CEM; OVCAR-4.
Common to all, as to test: growth of human tumour cells (NCI), 48 h

Regarding `Cc1ccc(-c2cc(-c3cc(-c4ccc(C)cc4C)[nH]n3)[nH]n2)c(C)c1`, the GI50 in the experiment with HOP-92 is 18.9 µM (inactive); with SK-OV-3, 15.2 µM (inactive); in the experiment on PC-3 it was 15.1 µM (inactive); in the experiment on BT-549 it was 21.9 µM (inactive); with SK-MEL-5, 16.4 µM (inactive); in the experiment with MOLT-4, 10.1 µM (inactive). The GI50 is 13.7 µM (inactive) in the experiment with IGROV-1; 13 µM (inactive) in the experiment on 786-0; 16.2 µM (inactive) in the experiment with MDA-MB-231; 14.7 µM (inactive) with MDA-MB-435; 12.7 µM (inactive) with COLO 205; 18.8 µM (inactive) in the experiment on CAKI-1. Also, the GI50 is 15.4 µM in the experiment on HCT-15; 13.2 µM (inactive) in the experiment with HCC 2998; 20.7 µM (inactive) with EKVX; 15.8 µM (inactive) with M14; 10.8 µM (inactive) in the experiment on HT-29; 16 µM (inactive) in the experiment with HCT-116. For the same molecule, the GI50 in the experiment on CCRF-CEM is 0.71 µM (active); in the experiment on OVCAR-4, 8.71 µM (inactive).
Take `O=C(Nc1ccccc1)N(C1=NCC(CI)S1)c1ccc(F)cc1F` (stereo not drawn): the GI50 was 13.8 µM (inactive) in the experiment on HOP-92; > 100 µM (inactive) in the experiment with SK-OV-3; 67.1 µM (inactive) with PC-3; 26.5 µM (inactive) with BT-549; 46 µM (inactive) with SK-MEL-5; 21.6 µM (inactive) in the experiment on MOLT-4. The GI50 with IGROV-1 was 20.9 µM (inactive); in the experiment on 786-0, 46 µM (inactive); in the experiment on MDA-MB-231, 20.2 µM (inactive); in the experiment on MDA-MB-435, 50.1 µM (inactive); with COLO 205, 46 µM (inactive); in the experiment on CAKI-1, 25.4 µM (inactive). The GI50 was 25 µM with HCT-15; 74.3 µM (inactive) with HCC 2998; > 100 µM (inactive) in the experiment with EKVX; 79.1 µM (inactive) with M14; 29.2 µM (inactive) with HT-29; 55.2 µM (inactive) with HCT-116. Further, the figures for the GI50 in the experiment on CCRF-CEM and in the experiment on OVCAR-4 were 15.3 µM (inactive) and 43.6 µM (inactive), respectively.
On to `CC(C)=CCC[C@@H](C)C1=C(N)C(=O)C(C)=C(O)C1=O`, for which the GI50 in the experiment with HOP-92 is 57.4 µM (inactive); with SK-OV-3 it was 71.1 µM (inactive); in the experiment on PC-3, 54.3 µM (inactive); in the experiment on BT-549, > 75 µM (inactive); in the experiment on SK-MEL-5, 24.8 µM (inactive); with MOLT-4, 19.5 µM (inactive). Further, the GI50 in the experiment with IGROV-1 was 29.9 µM (inactive); in the experiment with 786-0 it was 43.7 µM (inactive); in the experiment on MDA-MB-231 it was 67.5 µM (inactive); in the experiment on MDA-MB-435, 44.8 µM (inactive); in the experiment with COLO 205, 29.2 µM (inactive); in the experiment on CAKI-1 it was 35.2 µM (inactive). Besides, the GI50 was 23.3 µM in the experiment with HCT-15; > 75 µM (inactive) with HCC 2998; 30.6 µM (inactive) in the experiment with EKVX; 38.7 µM (inactive) with M14; 15.6 µM (inactive) in the experiment on HT-29; 27.6 µM (inactive) in the experiment on HCT-116. For the same molecule, the GI50 is 18.7 µM (inactive) with CCRF-CEM and 35.7 µM (inactive) with OVCAR-4.
In the case of `OCCc1ccsc1-c1sc(-c2cc(CCO)c(-c3sc(-c4cc(CCO)c(-c5sccc5CCO)s4)cc3CCO)s2)cc1CCO`, the GI50 was 1.14 µM (inactive) with HOP-92; 1.64 µM (inactive) with SK-OV-3; 1.28 µM (inactive) in the experiment with PC-3; 0.634 µM (active) with BT-549; 1.13 µM (inactive) with SK-MEL-5; 0.52 µM (active) in the experiment on MOLT-4. Besides, the GI50 in the experiment on IGROV-1 was 1.21 µM (inactive); with 786-0, 0.776 µM (active); in the experiment with MDA-MB-231 it was 2.83 µM (inactive); with MDA-MB-435 it was 1.32 µM (inactive); in the experiment with COLO 205, 1.54 µM (inactive); in the experiment on CAKI-1 it was 1.48 µM (inactive). The GI50 in the experiment with HCT-15 was 1.03 µM; in the experiment on HCC 2998, 1.47 µM (inactive); in the experiment on EKVX, 1.26 µM (inactive); with M14, 1.82 µM (inactive); in the experiment on HT-29, 1.77 µM (inactive); with HCT-116, 0.889 µM (active). The GI50 in the experiment on CCRF-CEM was 0.647 µM (active); in the experiment with OVCAR-4, 1.16 µM (inactive).
Regarding `C=C1C(=O)OC2/C=C(/C)C3(O)OC(C)(CC(OC(=O)C(C)C)C12)CC3OC(C)=O` (stereo not drawn), the GI50 with HOP-92 was 13.3 µM (inactive); in the experiment on SK-OV-3, 7.59 µM (inactive); with PC-3, 13.7 µM (inactive); in the experiment with BT-549 it was 5.79 µM (inactive); in the experiment on SK-MEL-5, 6.31 µM (inactive); in the experiment with MOLT-4, 4.36 µM (inactive). In addition, the GI50 in the experiment on IGROV-1 was 4.5 µM (inactive); in the experiment on 786-0, 5.27 µM (inactive); in the experiment on MDA-MB-231, 12.5 µM (inactive); in the experiment with MDA-MB-435, 3.96 µM (inactive); in the experiment on COLO 205, 3.84 µM (inactive); in the experiment with CAKI-1, 2.48 µM (inactive). Moreover, the GI50 was 4.45 µM in the experiment on HCT-15; 4.53 µM (inactive) in the experiment with HCC 2998; 10.6 µM (inactive) in the experiment with EKVX; 6.92 µM (inactive) in the experiment on M14; 4.55 µM (inactive) in the experiment with HT-29; 5.3 µM (inactive) in the experiment with HCT-116. The GI50 in the experiment on CCRF-CEM is 2.79 µM (inactive); in the experiment on OVCAR-4, 13.2 µM (inactive).
With `Cc1c(-c2ccccc2)c(C#N)c2nnn(-c3ccccc3)c(=O)n12`, the GI50 with HOP-92 was > 100 µM (inactive); in the experiment with SK-OV-3 it was > 100 µM (inactive); in the experiment with PC-3 it was 78.9 µM (inactive); in the experiment with BT-549, > 100 µM (inactive); in the experiment with SK-MEL-5 it was 30.9 µM (inactive); in the experiment with IGROV-1, > 100 µM (inactive). Further, the GI50 in the experiment on 786-0 is 76.4 µM (inactive); in the experiment on MDA-MB-231, > 100 µM (inactive); with MDA-MB-435 it was > 100 µM (inactive); in the experiment with COLO 205, 54.1 µM (inactive); in the experiment on CAKI-1, > 100 µM (inactive); with HCT-15, 36 µM. Besides, the GI50 in the experiment with HCC 2998 was 99.8 µM (inactive); in the experiment with EKVX, > 100 µM (inactive); in the experiment with M14 it was 67.1 µM (inactive); in the experiment with HT-29, 29 µM (inactive); with HCT-116 it was > 100 µM (inactive); in the experiment with CCRF-CEM, 34.8 µM (inactive). Also, the GI50 in the experiment on OVCAR-4 is > 100 µM (inactive).
As for `Cc1ccc(-n2cc(-c3ccc(Cl)cc3)c3c(=N)n(N)cnc32)cc1`, the GI50 was 9.95 µM (inactive) in the experiment on HOP-92; 17.4 µM (inactive) with SK-OV-3; 6.41 µM (inactive) with PC-3; 16.9 µM (inactive) in the experiment on BT-549; 7.43 µM (inactive) with SK-MEL-5; 12 µM (inactive) in the experiment on IGROV-1. Moreover, the GI50 is 11.9 µM (inactive) with 786-0; 12.6 µM (inactive) in the experiment on MDA-MB-231; 11.1 µM (inactive) with MDA-MB-435; 8.2 µM (inactive) in the experiment on COLO 205; 18.5 µM (inactive) in the experiment on CAKI-1; 15.6 µM in the experiment on HCT-15. For the same molecule, the GI50 is 6.11 µM (inactive) in the experiment with HCC 2998; 16.4 µM (inactive) in the experiment on EKVX; 5.75 µM (inactive) in the experiment with M14; 8.24 µM (inactive) with HT-29; 7.8 µM (inactive) with HCT-116; 11.3 µM (inactive) in the experiment with CCRF-CEM. The GI50 in the experiment with OVCAR-4 is 10.5 µM (inactive).
